Some test systems named below: CCRF-CEM leukemia; EKVX NSCLC; HL-60(TB) leukemia; HS 578T breast; NCI-H522 lung; SK-MEL-28 melanoma; T-47D breast; SW-620 colon.
Assay in all cases: NCI tumour cell line growth inhibition, 48 h

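Briefly, cells in 96-well plates were exposed to five compound concentrations for 48 h, and endpoints were estimated by linear interpolation. Here, GI50 denotes the concentration required for 50% inhibition of growth. TGI: total growth inhibition.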

Consider `Nc1ncc(-c2ccc3ncnc(N4CCc5cc(F)c(Cl)cc54)c3c2)cc1C=O`, for which the GI50 in the assay with CCRF-CEM leukemia was 2.12 µM; with EKVX NSCLC, 0.371 µM; with HL-60(TB) leukemia it was 0.403 µM; with HS 578T breast it was 0.369 µM; in the assay on NCI-H522 lung, 2.17 µM; in the assay on SK-MEL-28 melanoma, 1.61 µM. Also, the GI50 in the assay on T-47D breast is 0.587 µM. The TGI in the assay on CCRF-CEM leukemia is over 100 µM; with EKVX NSCLC it was over 100 µM; with HL-60(TB) leukemia, 3.86 µM; in the assay with HS 578T breast it was 3.06 µM; in the assay with NCI-H522 lung, over 100 µM; in the assay with SK-MEL-28 melanoma, over 100 µM. For the same compound, the TGI with T-47D breast is over 100 µM.

Take `NC(=O)NC(=O)Nc1ccc(Br)cc1`: the TGI is over 15.3 µM in the assay with CCRF-CEM leukemia; 48.4 µM with EKVX NSCLC; over 6.62 µM in the assay on HL-60(TB) leukemia; over 100 µM with HS 578T breast; over 40 µM with NCI-H522 lung; over 17.7 µM in the assay on SK-MEL-28 melanoma. In addition, the figures for the TGI with SW-620 colon and with T-47D breast were over 29.4 µM and over 100 µM, respectively.

Turning to `Cc1cc(NS(=O)(=O)c2ccc(-c3cnc(C4CC4)o3)cc2)ccc1Cl`, the GI50 in the assay on CCRF-CEM leukemia is 0.274 µM; with EKVX NSCLC, 0.557 µM; in the assay on HL-60(TB) leukemia, 0.232 µM; with HS 578T breast, 0.233 µM; in the assay on NCI-H522 lung it was 0.0761 µM; in the assay with SK-MEL-28 melanoma, 2.87 µM. In addition, the values for the GI50 with SW-620 colon and with T-47D breast were 0.13 µM and 0.323 µM, respectively. Further, the TGI in the assay with CCRF-CEM leukemia is over 41.1 µM; in the assay with EKVX NSCLC it was 17.1 µM; in the assay with HL-60(TB) leukemia, 1.23 µM; with HS 578T breast, 11.5 µM; in the assay with NCI-H522 lung, 3.38 µM; in the assay on SK-MEL-28 melanoma, 20 µM. For the same compound, the results for the TGI in the assay with SW-620 colon and with T-47D breast were 15 µM and 23.3 µM, respectively.

Consider `Cn1cc(Nc2nccc(-c3ccc4c(c3)CN(C3COC3)CC[C@H]4NC(=O)c3cn(C(C)(C)C)nn3)n2)cn1`, for which the GI50 with CCRF-CEM leukemia is over 100 µM; in the assay on EKVX NSCLC, over 100 µM; with HL-60(TB) leukemia it was over 100 µM; in the assay with HS 578T breast, 29.7 µM; in the assay on NCI-H522 lung it was 96.1 µM; with SK-MEL-28 melanoma, 46.9 µM. Further, the GI50 is over 100 µM with SW-620 colon and 47.9 µM in the assay on T-47D breast. In addition, the TGI in the assay with CCRF-CEM leukemia, in the assay on EKVX NSCLC, in the assay with HL-60(TB) leukemia, with HS 578T breast, in the assay with NCI-H522 lung and in the assay with SK-MEL-28 melanoma was over 100 µM each time. The TGI with SW-620 colon and in the assay with T-47D breast was over 100 µM throughout.

Turning to `N#Cc1c(-c2ccccc2)nc(SCC(O)CN2CCOCC2)nc1N1CCOCC1` (centres undefined), the GI50 was 88 µM in the assay with CCRF-CEM leukemia; 7.52 µM in the assay on EKVX NSCLC; 4.05 µM with HL-60(TB) leukemia; 6.22 µM in the assay on HS 578T breast; 18.3 µM with NCI-H522 lung; 11.2 µM in the assay with SK-MEL-28 melanoma. Further, the GI50 in the assay on SW-620 colon is 51.9 µM; in the assay with T-47D breast it was 1.33 µM. Further, the TGI in the assay on CCRF-CEM leukemia is over 100 µM; in the assay with EKVX NSCLC, over 100 µM; in the assay on HL-60(TB) leukemia, 15.3 µM; in the assay with HS 578T breast, 63.2 µM; in the assay on NCI-H522 lung, over 100 µM; in the assay with SK-MEL-28 melanoma, over 100 µM. Besides, the TGI is over 100 µM with SW-620 colon and 6.03 µM in the assay on T-47D breast.

Turning to `COc1ccc(-c2cc(-c3ccc(Cl)cc3)nc(SCCCC(=O)NO)n2)cc1OC`, the GI50 is 0.488 µM with CCRF-CEM leukemia; 1.04 µM with EKVX NSCLC; 2.48 µM in the assay on HL-60(TB) leukemia; 2.31 µM in the assay on HS 578T breast; 1.3 µM with NCI-H522 lung; 1.2 µM in the assay with SK-MEL-28 melanoma. Moreover, the results for the GI50 in the assay on SW-620 colon and with T-47D breast were 0.578 µM and 1.88 µM, respectively. Moreover, the TGI in the assay with CCRF-CEM leukemia worked out at 33.4 µM; with EKVX NSCLC, 8.89 µM; in the assay with HL-60(TB) leukemia, 8.56 µM; with HS 578T breast, 11.1 µM; in the assay on NCI-H522 lung, 4.05 µM; in the assay on SK-MEL-28 melanoma it was 2.71 µM. The TGI was 2.76 µM in the assay on SW-620 colon and 18.1 µM in the assay on T-47D breast.

Regarding `CCCCCCCCCCCCCCCC(=O)OCC1OC(OCCCC)[C@H](O[C@@H]2OC(C)C(OC(=O)CCC)C(O)C2O)C(O)C1O` (some centres undefined), the GI50 in the assay on CCRF-CEM leukemia is 17.2 µM; with EKVX NSCLC, 19.4 µM; with HL-60(TB) leukemia it was 14.5 µM; with HS 578T breast it was 16.2 µM; with NCI-H522 lung, 21.1 µM; in the assay on SK-MEL-28 melanoma it was 16.5 µM. The GI50 with SW-620 colon is 21.9 µM; in the assay with T-47D breast it was 18.7 µM. Moreover, the TGI with CCRF-CEM leukemia turned out to be 35 µM; in the assay with EKVX NSCLC, 36.5 µM; in the assay with HL-60(TB) leukemia it was 32 µM; in the assay on HS 578T breast it was 44.2 µM; with NCI-H522 lung, 46.7 µM; in the assay on SK-MEL-28 melanoma, 32.1 µM. The TGI in the assay with SW-620 colon was 44.5 µM; with T-47D breast, 40 µM.

Take `Cc1ncnc2c1ccn2[C@@H]1C[C@H](Oc2cc(C(F)F)c(F)c3c2CNCC3)[C@@H](O)[C@H]1O`: the GI50 in the assay on CCRF-CEM leukemia, in the assay on EKVX NSCLC, in the assay with HL-60(TB) leukemia, in the assay with HS 578T breast, with NCI-H522 lung and in the assay on SK-MEL-28 melanoma was over 100 µM each time. For the same compound, the GI50 with SW-620 colon and with T-47D breast was over 100 µM in each case. For the same compound, the TGI in the assay on CCRF-CEM leukemia, with EKVX NSCLC, in the assay on HL-60(TB) leukemia, in the assay with HS 578T breast, in the assay on NCI-H522 lung and in the assay on SK-MEL-28 melanoma was over 100 µM each time. In addition, the TGI with SW-620 colon and in the assay on T-47D breast was over 100 µM in each case.

With `CC[C@]1(O)CC2CN(CCc3c([nH]c4ccccc34)C(C(=O)OC)(c3cc4c(cc3OC)N(C=O)[C@H]3[C@@](O)(C(=O)OC)[C@H](OC(C)=O)[C@]5(CC)[C@@H]6C[C@@H]6CN6CC[C@]43[C@@H]65)C2)C1` (some centres undefined), the GI50 in the assay on CCRF-CEM leukemia, with EKVX NSCLC, in the assay on HL-60(TB) leukemia, in the assay with HS 578T breast, in the assay on NCI-H522 lung and in the assay with SW-620 colon was under 0.00325 µM throughout. Moreover, the GI50 with T-47D breast is 0.228 µM. The TGI with CCRF-CEM leukemia was 0.155 µM; in the assay on EKVX NSCLC, over 32.5 µM; with HL-60(TB) leukemia, under 0.00325 µM; in the assay with HS 578T breast, over 32.5 µM; with NCI-H522 lung, under 0.00325 µM; in the assay on SW-620 colon, over 32.5 µM.

With `CCc1nc(N)nc(N)c1-c1ccc(N2CCNCC2)c([N+](=O)[O-])c1`, the TGI with CCRF-CEM leukemia is over 72.1 µM; with EKVX NSCLC, over 100 µM; in the assay with HL-60(TB) leukemia, over 85.2 µM; in the assay on HS 578T breast, over 74.2 µM; with NCI-H522 lung it was over 100 µM; with SK-MEL-28 melanoma, over 100 µM. For the same compound, the TGI in the assay on SW-620 colon and with T-47D breast was over 100 µM in each case.

Source of the values: PubChem BioAssay (NCI).
